Assay results published in US9201062B2, “Predicting toxicity of a compound over a range of concentrations” (CELLOMICS, INC., priority 2011, dated 2015).
Where a name gives a salt, the structure may show the parent alone.

Key:
[1] = peak serum concentration of the drug; cited from earlier work
[2] = tested on: Reactive oxygen species (ROS) levels in cells
Text: Once imaging has been performed, automated image processing algorithms as are known in the art can be used in the imaging system to determine the measurements in the cell images.
The target i being evaluated was the normalized ROS response.
where μ is the mean of the normalized non-hepatotoxic compound values and σ is the standard deviation of the normalized non-hepatotoxic compound values.
As noted above, for ROS, the upper threshold may be all that is needed. […] The difficulty in compound toxicity measurement because of non-unidirectional response and/or because of incorrect EC50/IC50 calculation from a dose-response curve are avoided by establishing toxicity thresholds based on the negative controls and by flagging a compound as toxic only if its response goes beyond the determined thresholds at any concentration.
For each target, the minimal coefficient K of the deviation value from the mean of the non-hepatotoxic compound data can be calculated to include all the non-hepatotoxic compounds values between μ+K×σ and μ−K×σ values. These values are set respectively as the upper and lower toxicity thresholds for the target. As noted above, for each target both or only one of the thresholds can be used.
(§1) The normalized values from the hepatotoxic compounds (or compounds of interest) are compared with the threshold value determined above. The compound toxicity is determined by verifying whether the normalized value of the compound is outside the threshold value(s). […] Cell loss was determined to be toxic if the normalized value was less than the lower threshold value. Reactive oxygen species level was determined to be toxic if the respective normalized value was greater than the upper threshold value.

[3] = tested on: rat primary hepatocytes; experiment: Multiparametric high-content hepatotoxicity prediction assay on rat primary hepatocytes (FIG. 9 decision table); conditions: 24 hours drug incubation, over concentration range, targets: cell number, DNA content, GSH, ROS, mitochondrial membrane potential
Text: After drug treatment, the hepatic cells are stained with specific fluorescent materials to detect different cellular targets or properties whose changes are associated with cell health, as is known in the art. For example, in the exemplary embodiments discussed herein, as well as in the test data shown, the following five cellular responses are simultaneously monitored: • 1. Cell number (i.e., cell loss, cell density) • 2. Nuclear DNA content • 3. Reduced glutathione (GSH) levels in cells • 4. Reactive oxygen species (ROS) levels in cells • 5. Mitochondrial membrane potential changes
Otherwise the cell contains a “−”.
This corresponds to the number of target cells corresponding to the compound that contain a “+”.
For maintenance of rat primary hepatocytes, Williams E medium can be used containing the following supplements: 15 mM HEPES, 1% ITS+, 4 mM Glutamax, 0.1 μM dexamethasone, 50 units/ml penicillin and 50 μg/ml streptomycin (Hepatocyte maintenance medium). […]
For each target, the minimal coefficient K of the deviation value from the mean of the non-hepatotoxic compound data can be calculated to include all the non-hepatotoxic compounds values between μ+K×σ and μ−K×σ values. […]
as §1
The images were analyzed, as discussed above, to produce the data shown on FIG. 9. […] After 24 hours of drug incubation, the hepatocytes were stained and imaged on a Thermo Scientific ToxInsight HCS reader. The data for each target were normalized and analyzed based on the threshold calculated from the non-hepatotoxic compounds in the manner discussed above. […]

[4] = tested on: HepG2 cells; experiment: High-content imaging of HepG2 cells stained for nuclei, glutathione, ROS and mitochondria (FIG. 11); format: cell-based; conditions: 25 Cmax, 24 hrs
Procedure: For routine culture of HepG2 cells, EMEM medium containing the following supplements can be used: 10% fetal bovine serum, 1 mM sodium pyruvate, 1× non-essential amino acids, 100 units/ml penicillin and 100 μg/ml streptomycin (EMEM complete medium).
Cells can be harvested by trypsinization, diluted into EMEM complete medium and cell density was determined. Cells are diluted to 2.0×10^5 cells/ml in EMEM complete medium. 100 μl of the cell suspension are added per well of the 96-well microplate to achieve 20,000 cells/well.
The cells were then stained with specific fluorescent dyes to detect each cellular target. Cell images were then obtained using the ArrayScan VTi Reader manufactured by Cellomics Inc., a subsidiary of Thermo Fisher Scientific Inc. Representative samples 230 of the cell images obtained during the assay are shown in FIG. 11. […] The images of the cells for the different targets look different for the two drugs; Troglitazone reduces the number of cells and mitochondrial membrane potential but […] reduced glutathione levels in HepG2 cells.

SMILES	1 CMax [1] [µg/mL]	normalized ROS response relative to upper and lower toxicity thresholds [2]	also measured
Cc1ccc(C)c(OCCCC(C)(C)C(=O)O)c1 [Gemfibrozil]	46.4	–	–
CN1CCC(=C2c3ccccc3C=Cc3ccccc32)CC1 [Cyproheptadine HCl]	30	–	–
CCN(CC)CCNc1ccc(CO)c2sc3ccccc3c(=O)c12 [Hycanthone]	–	flagged as being toxic	–
COc1ccc2[nH]cc(CCNC(C)=O)c2c1 [Melatonin]	0.00557	between the upper and lower thresholds values	–
CC(=O)Oc1ccccc1C(=O)O [Aspirin]	0.995	between the upper and lower thresholds values	–
CN(C)[C@@H]1C(O)=C(C(N)=O)C(=O)[C@@]2(O)C(O)=C3C(=O)c4c(O)cccc4[C@@](C)(O)[C@H]3C[C@@H]12 [Tetracycline]	9.317	–	–
Cc1cccc(Nc2ccccc2C(=O)O)c1C [Mefenamic Acid]	6.5	flagged as being toxic	–
CNCCC(Oc1ccc(C(F)(F)F)cc1)c1ccccc1 (stereo not drawn) [Fluoxetine]	0.015	between the upper and lower thresholds values	number of targets flagged as being toxic (of five monitored targets) [3]: none
CO[C@@H]1[C@@H](OC(N)=O)[C@@H](O)[C@H](Oc2ccc3c(O)c(NC(=O)c4ccc(O)c(CC=C(C)C)c4)c(=O)oc3c2C)OC1(C)C [Novobiocin]	62.5	flagged as being toxic	number of targets flagged as being toxic (of five monitored targets) [3]: five
Clc1ccccc1CN1CCc2sccc2C1 [Ticlopidine]	2.13	–	–
CN(CCOc1ccc(CC2SC(=O)NC2=O)cc1)c1ccccn1 (stereo not drawn) [Rosiglitazone]	0.373	–	–
Cc1c(C)c2c(c(C)c1O)CCC(C)(COc1ccc(CC3SC(=O)NC3=O)cc1)O2 (stereo not drawn) [Troglitazone]	2.82	–	mitochondrial membrane potential [4]: reduces; number of cells [4]: reduces; reduced glutathione levels [4]: increases
N#CC(C#N)=NNc1ccc(OC(F)(F)F)cc1 [FCCP]	–	–	number of targets flagged as being toxic (of five monitored targets) [3]: Four
O=c1n(CCCN2CCN(c3cccc(Cl)c3)CC2)nc2ccccn12 [Trazodone HCl]	1.88	–	–
CCn1cc(C(=O)O)c(=O)c2ccc(C)nc21 [Nalidixic Acid]	30	–	–
CCCCC1C(=O)N(c2ccccc2)N(c2ccccc2)C1=O [Phenylbutazone]	150	–	–
O=C1CN(/N=C/c2ccc(-c3ccc([N+](=O)[O-])cc3)o2)C(O)=N1 [Dantrolene]	1.24	–	–
